According to patent US9395368B2, “Methods, agents and peptides for inducing an immune response to matrix metalloproteinase-2 expressing tumors” (New York University, priority 2010, dated 2016):

Test system: MMP-2-specific CD4+ T cell clones
Experiment: Epitope specificity of MMP-2-specific CD4+ T cell clones with individual peptides (ELISA)
Type: cell-based, human
Conditions: individual peptides 2 μM; TNFα, IL-4 and IFNγ production
Experimental: (A) MMP-2-specific CD4^+ T cell clones were generated and characterized as described in Experimental Procedures. Clone HD9828/52 is shown as a representative example. Epitope specificities were assessed after overnight stimulation with individual peptides (2 μM). IFNγ, TNFα and IL-4 release was measured by ELISA. (B) All MMP-2-specific CD4^+ T cell clones were characterized by staining for CD4, CD8 and TCR Vβ chain expression. Clone HD9828/52 is shown as a representative example. (C) To establish HLA class-II isotype restriction, CD4^+ T cell clones were stimulated by corresponding peptides in the absence or presence of blocking mAb (10 μg/mL) for HLA-DP, HLA-DQ or HLA-DR and IFNγ release was measured by ELISA. (D) Purified CD4^+/CD25^− cells were stimulated for 12 days by autologous DCs incubated with MMP-2 protein (10 μM) and subsequently washed. MMP-2-specific CD4^+ T cells were detected by intracellular staining of IFNγ, TNFα and IL-4 after 6 hours of stimulation with MMP-2 peptide pool (2 μM). Numbers in the upper right quadrants are the percentages of each population.
All 19 MMP-2-specific CD4^+ T cell clones were characterized for epitope specificity by testing clone responses to every peptide separately. TCR Vβ expression was assessed by surface staining HLA class-II isotype restriction was determined by using blocking mAb to HLA-DP, -DQ and -DR. Results listed for the T cell clone HD9828/MC1/52 are shown in FIG. 1 and FIG. 11, and are highlighted in bold italics.
T Cell culture, stimulation and priming. Peripheral blood mononuclear cells (PBMCs) were purified from healthy donor-(HD) or cord blood donor-(CB) derived buffy coats (New York Blood Center) by Ficoll-Paque Plus (GE Healthcare) centrifugation. CD4^+/CD25^− cells were enriched (>90%) by magnetic cell sorting (Miltenyi Biotec) and primed/stimulated for 12-15 days either with irradiated (35Gy) autologous CD4^− cells or with autologous mature DCs in IMDM (GIBCO) supplemented with 1 mM HEPES (Life Technologies), 2 mM L-glutamine (Sigma), […] (Sigma) and 5% heat inactivated pooled human serum (PHS; Valley Biomedical) in the presence of rhIL-2 (10 UI/mL) and IL7 (5 ng/mL) (R&D Systems). Antigen presenting cells (CD4^− cells or DCs) were loaded either with peptides (2 μM) or with the MMP-2 protein (10 μg/mL) for 2 and 5 h, respectively. DCs were matured using the TLR3 agonist poly(I:C) at 5 μg/mL/10^6 DCs (Amersham). To generate T cell clones, we originally relied on our published methodology (Godefroy et al., 2006; Godefroy et al., 2007; the entire contents of each of which is incorporated herein by reference), involving enrichment of IFNγ-secreting cells upon short-term culture and peptide stimulation to generate MMP-2 responsive clones. Briefly, CD4^+ T cells were stimulated by CD4^− cells irradiated and pulsed with peptides for 12 days in the presence of rhIL-2 and rhIL-7. CD4^+ T cells were then restimulated with peptides for 3 hours before capturing IFNγ-secreting specific cells using a bispecific antibody coating T cells and capturing produced IFNγ. Positive cells were purified magnetically before being cloned. Although MMP-2-specific cells could be isolated, it was realized that IFNγ secretion was marginal compared to their secretion of IL-4 and TNFα. IFNγ-secreting cells in response to MMP-2 peptide pool were enriched by cytokine-guided magnetic cell sorting (Miltenyi Biotec) as described above and cloned the following day by limiting dilution in the presence of irradiated allogeneic PBMCs, 1 μg/mL phytohemagglutinin-L (Sigma) and 150 UI/mL rhIL-2. Tumor infiltrating lymphocytes (TILs) were provided by Pr. F. Jotereau and B. Dréno. They were obtained from tumor-invaded lymph nodes of melanoma patients (stage Mb) and expanded ex vivo. These patients received autologous TILs and IL-2 infusions in a clinical trial (Labarriere et al., 2002). […]

Row | Sequence | recognition by CD4+ T cell clones
1 | AFNWSKNKKTYIFAGDKFWR (listed as Homo sapiens) [P571-590] | recognized
2 | ESCTSAGRSDGKMWCATTAN (listed as Homo sapiens) [P361-380] | recognized
3 | FFKGAYYLKLENQSLKSVKF (listed as Homo sapiens) [P631-650] | recognized
4 | GCLLSHAAAAPSPIIKFPGD (listed as Homo sapiens) [P21-40] | recognized
5 | GFPKLIADAWNAIPDNLDAV (listed as Homo sapiens) [P601-620] | recognized
6 | GYPKPLTSLGLPPDVQRVDA (listed as Homo sapiens) [P551-570] | recognized
7 | MEALMARGALTGPLRALCLL (listed as Homo sapiens) [P1-20] | recognized
8 | RIHDGEADIMINFGRWEHGD (listed as Homo sapiens) [P161-180] | recognized
9 | TGPLRALCLLGCLLSHAAAA (listed as Homo sapiens) [P11-30] | recognized
10 | VAPKTDKELAVQYLNTFYGC (listed as Homo sapiens) [P41-60] | recognized
11 | VDLQGGGHSYFFKGAYYLKL (listed as Homo sapiens) [P621-640] | recognized
